Patent US20230265116A1, “DEGRADATION OF (EGFR) BY CONJUGATION OF EGFR INHIBITORS WITH E3 LIGASE LIGAND AND METHODS OF USE” (BEIGENE, LTD., priority 2020, published 2023)

Columns and labels:
Format in all cases: cell-based
[1] = molecular target: T1, EGFR L858R/C797S (BaF3 LC cells) (Homo sapiens, UniProt P00533, C797S/L858R); assay: EGFR degradation HTRF assay, BaF3 LC cells; conditions: BaF3 LC, 16h treatment; read-out: BaF3 LC DC50
T1 construct: expressed in transfected cells; host or cells: BaF3

[2] = system: EGFR Del19/C797S (H1975-clone #23); assay: EGFR degradation HTRF assay, H1975-clone #23 DC cells; conditions: 16h treatment; for H1975 #23 DC Dmax (%): maximum percentage of degradation; for DC50: H1975 #23 DC, read-out: H1975 #23 DC DC50
Method in brief: (§1)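 Engineered H1975 lines (lentiviral mutant EGFR, endogenous EGFR knocked out, single-clone verified); 16h compound, 37° C., 5% CO2, 0.2% DMSO; 8-point 5-fold series from 10 uM final. HTRF lysate read; % degradation vs DMSO, four-parameter fit → DC50, Dmax.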

[3] = system: EGFR Del19/T790M/C797S (H1975-clone #28); assay: EGFR degradation HTRF assay, H1975-clone #28 DTC cells; conditions: H1975 # 28 DTC cells; for DC50: EGFR degradation, IC50 (DC50) from curve fit, read-out: DC50(nM) H1975 # 28 DTC; for Dmax (%) H1975 # 28 DTC: maximum percentage of inhibition (degradation)
Method in brief: as §1

[4] = molecular target: T2, EGFR L858R/T790M/C797S (BaF3-LTC cells) (Homo sapiens, UniProt P00533, C797S/L858R/T790M); assay: EGFR degradation HTRF assay, BaF3-LTC cells; conditions: BaF3-LTC cells; EGFR degradation, IC50 (DC50) from curve fit; read-out: DC50(nM) BaF3-LTC
T2 construct: expressed in transfected cells; host or cells: BaF3
Method in brief: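 EGFR remaining after a 16 h, 37 °C exposure (8 doses, 5-fold steps from 10 uM final, 0.2% DMSO) was quantified by HTRF antibodies in cell lysate. Percent inhibition relative to DMSO control was fitted by four-parameter logistic to give DC50; Dmax denotes maximal degradation.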

T1 sequence (P00533 25-1210 C797S/L858R): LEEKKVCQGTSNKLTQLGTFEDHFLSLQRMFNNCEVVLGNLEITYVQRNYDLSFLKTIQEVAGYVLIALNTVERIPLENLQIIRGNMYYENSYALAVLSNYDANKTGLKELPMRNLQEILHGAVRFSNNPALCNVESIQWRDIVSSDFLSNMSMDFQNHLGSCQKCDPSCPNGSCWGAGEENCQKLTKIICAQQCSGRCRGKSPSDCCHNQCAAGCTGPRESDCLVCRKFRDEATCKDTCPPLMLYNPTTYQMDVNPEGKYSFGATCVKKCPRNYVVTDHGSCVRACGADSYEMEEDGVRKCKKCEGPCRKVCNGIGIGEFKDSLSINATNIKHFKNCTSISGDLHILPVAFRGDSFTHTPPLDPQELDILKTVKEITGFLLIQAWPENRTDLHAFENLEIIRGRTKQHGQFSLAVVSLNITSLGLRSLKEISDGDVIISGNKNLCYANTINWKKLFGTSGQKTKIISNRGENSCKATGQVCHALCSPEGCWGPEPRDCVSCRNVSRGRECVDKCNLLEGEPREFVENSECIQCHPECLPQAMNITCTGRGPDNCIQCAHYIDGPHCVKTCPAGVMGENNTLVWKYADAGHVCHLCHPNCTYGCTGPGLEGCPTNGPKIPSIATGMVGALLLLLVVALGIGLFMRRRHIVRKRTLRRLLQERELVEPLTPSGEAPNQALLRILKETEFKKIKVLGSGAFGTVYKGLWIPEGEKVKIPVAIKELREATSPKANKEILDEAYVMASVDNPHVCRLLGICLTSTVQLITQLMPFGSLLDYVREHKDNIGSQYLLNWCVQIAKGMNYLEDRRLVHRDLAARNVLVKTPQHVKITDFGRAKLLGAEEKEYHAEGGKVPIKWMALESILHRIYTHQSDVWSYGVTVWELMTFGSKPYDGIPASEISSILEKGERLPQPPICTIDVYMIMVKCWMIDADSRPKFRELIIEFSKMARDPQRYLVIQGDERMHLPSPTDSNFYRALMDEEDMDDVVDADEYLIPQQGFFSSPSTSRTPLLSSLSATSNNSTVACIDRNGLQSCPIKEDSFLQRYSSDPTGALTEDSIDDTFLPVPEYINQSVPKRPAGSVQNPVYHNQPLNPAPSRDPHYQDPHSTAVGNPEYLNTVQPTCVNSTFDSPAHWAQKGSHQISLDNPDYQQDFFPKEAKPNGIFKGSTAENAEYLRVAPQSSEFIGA
T2 sequence (P00533 25-1210 T790M/C797S/L858R): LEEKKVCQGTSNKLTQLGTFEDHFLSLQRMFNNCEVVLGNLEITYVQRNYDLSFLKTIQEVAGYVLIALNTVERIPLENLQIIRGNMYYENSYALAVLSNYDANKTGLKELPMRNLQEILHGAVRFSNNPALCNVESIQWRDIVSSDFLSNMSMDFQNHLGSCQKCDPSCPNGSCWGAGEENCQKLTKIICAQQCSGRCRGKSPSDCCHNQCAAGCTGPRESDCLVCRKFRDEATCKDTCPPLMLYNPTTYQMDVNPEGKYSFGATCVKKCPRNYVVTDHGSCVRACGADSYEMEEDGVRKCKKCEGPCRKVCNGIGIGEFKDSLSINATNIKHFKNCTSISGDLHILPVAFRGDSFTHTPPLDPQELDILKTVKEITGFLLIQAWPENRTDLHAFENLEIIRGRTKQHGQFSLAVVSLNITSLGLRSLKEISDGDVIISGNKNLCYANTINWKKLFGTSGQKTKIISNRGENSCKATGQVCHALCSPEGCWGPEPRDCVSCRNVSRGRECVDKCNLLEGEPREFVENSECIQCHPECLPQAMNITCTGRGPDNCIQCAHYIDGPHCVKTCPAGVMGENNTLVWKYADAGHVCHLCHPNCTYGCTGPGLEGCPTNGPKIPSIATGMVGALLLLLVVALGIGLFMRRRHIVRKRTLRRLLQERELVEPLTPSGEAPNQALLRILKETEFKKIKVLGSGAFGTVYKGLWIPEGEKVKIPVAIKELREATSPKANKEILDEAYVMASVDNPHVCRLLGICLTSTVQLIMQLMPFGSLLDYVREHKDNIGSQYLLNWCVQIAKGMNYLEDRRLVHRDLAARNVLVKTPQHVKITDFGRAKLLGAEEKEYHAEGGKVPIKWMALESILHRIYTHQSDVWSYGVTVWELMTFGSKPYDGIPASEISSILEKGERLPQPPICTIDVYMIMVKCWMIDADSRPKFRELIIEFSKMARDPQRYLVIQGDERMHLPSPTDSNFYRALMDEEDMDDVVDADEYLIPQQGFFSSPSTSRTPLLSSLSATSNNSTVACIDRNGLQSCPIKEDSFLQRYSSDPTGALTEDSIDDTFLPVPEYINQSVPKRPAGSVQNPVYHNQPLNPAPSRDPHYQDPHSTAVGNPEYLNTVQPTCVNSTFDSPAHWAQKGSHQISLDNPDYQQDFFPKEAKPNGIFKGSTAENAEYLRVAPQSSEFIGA

SMILES | DC50 [1] [nM] | H1975 #23 DC Dmax (%) [2] [%] | DC50 [2] [nM] | DC50 [3] [nM] | Dmax (%) H1975 # 28 DTC [3] [%] | DC50 [4] [nM]
CCc1cc(Nc2ncc(Br)c(Nc3ccc4nc(C)c(F)cc4c3P(C)(C)=O)n2)c(OC)cc1N1CCC(N2CCN(C(=O)[C@H]3CN(c4cc(F)c([C@H]5CCC(=O)NC5=O)c(F)c4)CC3(C)C)CC2)CC1 [Example 576, (R)-3-(4-((R)-4-(4-(1-(4-((5-bromo-4-((5-(dimethylphosphoryl)-3-fluoro-2-methylquinolin-6-yl)amino)pyrimidin-2-yl)amino)-2-ethyl-5-methoxyphenyl)piperidin-4-yl)piperazine-1-carbonyl)-3,3-dimethylpyrrolidin-1-yl)-2,6-difluorophenyl)piperidine-2,6-dione] | 15.8 | 77.19 | 3.59 | 2.8 | 81.93 | 12.1
CCOc1cc(N2CCC(N3CCN(CCc4cccc5c4n(C)c(=O)n5C4CCC(=O)NC4=O)CC3)CC2)c(CC)cc1Nc1ncc(Br)c(Nc2ccc3nc(CC)ccc3c2P(C)(C)=O)n1 (stereo not drawn) [Example 752, 3-(4-(2-(4-(1-(4-((5-bromo-4-((5-(dimethylphosphoryl)-2-ethylquinolin-6-yl)amino)pyrimidin-2-yl)amino)-5-ethoxy-2-ethylphenyl)piperidin-4-yl)piperazin-1-yl)ethyl)-3-methyl-2-oxo-2,3-dihydro-1H-benzo[d]imidazol-1-yl)piperidine-2,6-dione] | 2.23 | 78.99 | 1.76 | 1 | 77.12 | 6.34
CCc1cc(Nc2ncc(Br)c(Nc3ccc4nc(C)ccc4c3P(C)(C)=O)n2)c(OC)cc1N1CCC(N2CCN(C(=O)[C@H]3CN(c4cc(F)c([C@H]5CCC(=O)NC5=O)c(F)c4)CC3(C)C)CC2)CC1 [Example 487, (R)-3-(4-((R)-4-(4-(1-(4-((5-bromo-4-((5-(dimethylphosphoryl)-2-methylquinolin-6-yl)amino)pyrimidin-2-yl)amino)-2-ethyl-5-methoxyphenyl)piperidin-4-yl)piperazine-1-carbonyl)-3,3-dimethylpyrrolidin-1-yl)-2,6-difluorophenyl)piperidine-2,6-dione] | 10.1 | 74.41 | 4.02 | 2.22 | 85.45 | 5.25
CCc1cc(Nc2ncc(Br)c(Nc3ccc4c(=O)n(CC)ncc4c3P(C)(C)=O)n2)c(OC)cc1N1CCC(N2CCN(CCc3cc(F)c([C@H]4CCC(=O)NC4=O)c(F)c3)CC2)CC1 [Example 753, (R)-3-(4-(2-(4-(1-(4-((5-bromo-4-((5-(dimethylphosphoryl)-2-ethyl-1-oxo-1,2-dihydrophthalazin-6-yl)amino)pyrimidin-2-yl)amino)-2-ethyl-5-methoxyphenyl)piperidin-4-yl)piperazin-1-yl)ethyl)-2,6-difluorophenyl)piperidine-2,6-dione] | 20.1 | 78.45 | 2.43 | 6.28 | 87.49 | 83.7
